Source: PubChem BioAssay (NCI)
Where “and” joins values, the source holds several entries; their conditions need not be identical. Identical values can stand only once.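 Exposure lasted 48 hours, with cells grown in 96-well plates and compounds tested at five concentrations. GI50 is the concentration that inhibits growth by half. Definition used: TGI = concentration required for complete inhibition of growth.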

Columns and labels:
Experiment in all cases: NCI tumour cell line growth inhibition, 48 h
DMS 273 small cell lung = test system: DMS 273 small cell lung
RXF-631 renal = test system: RXF-631 renal
LXFL 529 NSCLC = test system: LXFL 529 NSCLC
BT-549 breast = test system: BT-549 breast

SMILES: O=C1/C(=C/c2ccc(Cl)c(Cl)c2)CN(C(=O)CCN2CCOCC2)C/C1=C\c1ccc(Cl)c(Cl)c1
- GI50 (DMS 273 small cell lung): 230 nM
- TGI (DMS 273 small cell lung): 2370 nM and 608 nM
- GI50 (RXF-631 renal): 1990 nM
- TGI (RXF-631 renal): 8250 nM and 5870 nM
- GI50 (LXFL 529 NSCLC): 499 nM
- TGI (LXFL 529 NSCLC): 2990 nM and 1630 nM
- TGI (BT-549 breast): 48.7 nM
